Measured values: ChEMBL document CHEMBL4732228, “The total synthesis of berberine and selected analogues, and their evaluation as amyloid beta aggregation inhibitors” (Eur J Med Chem, 2021)
In brackets after ≈: the same amount, converted by molar mass. Activity calls are given as the source filed them. No cut-off for these calls is given here.

Legend:
[1] = Cytotoxicity against rat PC12 cells assessed as reduction in cell viability incubated for 24 hrs by WST-8 assay; type: cell-based, PC-12
[2] = biological target: Amyloid-beta precursor protein (Homo sapiens) (UniProt P05067); assay: Inhibition of amyloid beta (1 to 42 ) (unknown origin) aggregation assessed as appearance of nano-rod like amyloid beta fragments after 20 hrs by CD spectroscopic method
Chain of Amyloid-beta precursor protein (Homo sapiens) (P05067 whole entry, the tested form may be a part): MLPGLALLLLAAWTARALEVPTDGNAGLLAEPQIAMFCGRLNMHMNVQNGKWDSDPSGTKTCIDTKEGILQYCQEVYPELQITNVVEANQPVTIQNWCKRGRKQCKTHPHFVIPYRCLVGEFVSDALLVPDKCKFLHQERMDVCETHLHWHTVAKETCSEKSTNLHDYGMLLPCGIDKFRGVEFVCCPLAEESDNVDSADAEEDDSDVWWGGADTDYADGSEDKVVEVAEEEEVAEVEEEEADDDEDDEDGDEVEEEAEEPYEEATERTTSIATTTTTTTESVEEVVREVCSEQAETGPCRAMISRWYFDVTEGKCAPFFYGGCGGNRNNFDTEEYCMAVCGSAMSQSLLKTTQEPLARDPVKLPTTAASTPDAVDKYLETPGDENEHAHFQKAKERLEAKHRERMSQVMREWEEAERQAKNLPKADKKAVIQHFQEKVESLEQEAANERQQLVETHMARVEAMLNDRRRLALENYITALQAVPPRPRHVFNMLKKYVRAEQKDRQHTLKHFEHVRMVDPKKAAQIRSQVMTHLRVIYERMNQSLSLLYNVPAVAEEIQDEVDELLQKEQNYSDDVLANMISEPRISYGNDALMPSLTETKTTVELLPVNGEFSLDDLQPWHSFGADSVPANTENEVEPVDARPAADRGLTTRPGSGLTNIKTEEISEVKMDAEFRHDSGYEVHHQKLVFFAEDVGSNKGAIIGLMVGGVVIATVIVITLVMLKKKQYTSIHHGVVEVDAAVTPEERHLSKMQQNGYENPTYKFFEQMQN

[3] = biological target: Amyloid-beta precursor protein (Homo sapiens) (UniProt P05067); assay: Inhibition of amyloid beta (1 to 42 ) (unknown origin) aggregation assessed as decrease in size of amyloid beta fibrils after 20 hrs by TEM analysis (reference value: 1 micrometer)
[4] = biological target: Amyloid-beta precursor protein (Homo sapiens) (UniProt P05067); assay: Inhibition of amyloid beta (1 to 42 ) (unknown origin) aggregation at 10 uM after 20 hrs by thioflavin-T fluorescence method relative to control
[5] = biological target: Amyloid-beta precursor protein (Homo sapiens) (UniProt P05067); assay: Inhibition of amyloid beta (1 to 42 ) (unknown origin) aggregation assessed as decrease in diameter of aggregate after 20 hrs by dynamic light scattering analysis (reference value: 4.6 micrometer)
[6] = Water solubility of the compound at 1 mg incubated for 12 hrs under shaking condition by UV-HPLC analysis; type: physicochemical
[7] = Ratio of compound solubility to curcumin solubility in water after 12 hrs by UV-HPLC analysis; type: physicochemical; settings: buffer

Structure (SMILES) | CC50 at 24 h [1] | inhibition [2] | Activity [3] | inhibition [4] | Activity [5] | solubility thermodynamic at 12 h [6] | Ratio [7]
COc1cc(/C=C/C(=O)CC(=O)/C=C/c2ccc(O)c(OC)c2)ccc1O [CURCUMIN] | 44 µM | – | – | – | – | – | –
Oc1cc2c(cc1O)C1Cc3ccc(O)c(O)c3CN1CC2 (configuration not stated) | 114 µM | Active | 50 nm | 78% | 1.3 nm | > 3340 µM | –
COc1ccc2ccn(CCc3cc4c(cc3Br)OCO4)c(=O)c2c1OC | 132 µM | – | – | – | – | 15 µM (≈ 6.48 µg/mL) | –
O=C1C=C(c2ccc(O)c(O)c2)OC(c2cc(O)ccc2O)C1 (configuration not stated) | 114 µM | – | – | 100% | – | 2340 µM (≈ 735 µg/mL) | –
COc1ccc2c(c1OC)CN1CCc3cc4c(cc3C1C2)OCO4 (configuration not stated) [TETRAHYDROBERBERINE] | > 150 µM | – | – | – | – | 7 µM (≈ 2.38 µg/mL) | –
COc1c(O)ccc2c1CN1CCc3cc(O)c(O)cc3C1C2 (configuration not stated) | 91 µM | – | – | 61% | – | 2370 µM (≈ 743 µg/mL) | –
CCOC(CNC(=O)c1cccc(OC)c1OC)OCC | > 150 µM | – | – | – | – | 26 µM (≈ 7.73 µg/mL) | –
COc1ccc2cc3[n+](cc2c1OC)CCc1cc2c(cc1-3)OCO2.[Cl-] [BERBERINE CHLORIDE] | > 150 µM | – | – | 32% | – | 1780 µM | 9000
COc1ccc2cc3n(c(=O)c2c1OC)CCc1cc2c(cc1-3)OCO2 [OXYBERBERINE] | 137 µM | – | – | – | – | – | –
COc1ccc2cc3[n+](cc2c1OC)CCc1cc(O)c(O)cc1-3.[Cl-] | > 150 µM | – | – | 27% | – | 2750 µM | –
Oc1cc2c(cc1O)-c1cc3ccc(O)c(O)c3c[n+]1CC2.[Cl-] | 9.8 µM | Active | 50 nm | 72% | – | 2450 µM | –
COc1c(O)ccc2cc3[n+](cc12)CCc1cc(O)c(O)cc1-3.[Cl-] | 39 µM | – | – | 39% | – | 1500 µM | –
COc1ccc2cc[nH]c(=O)c2c1OC | 129 µM | – | – | – | – | 5.2 µM (≈ 1.07 µg/mL) | –
